Test [1] concerns the target DNA-dependent protein kinase catalytic subunit (Homo sapiens) (UniProt P78527). Description: Selectivity interaction (ActivX KiNativ screen (ex vivo kinase selectivity in human PBMCs)) EUB0001619a PRKDC. The test is classed as cell-based. As to conditions: PBMC, at 1 µM.
Test [2] addresses Calcium/calmodulin-dependent protein kinase type 1 (Homo sapiens) (UniProt Q14012). Description: Selectivity interaction (KinomeScan (DiscoverX)) EUB0000666a CAMK1. The conditions noted are these: at 10 µM.
Test [3] has as its target T1, TGF-beta receptor type-1 (Homo sapiens) (UniProt P36897).
T1 sequence (whole entry): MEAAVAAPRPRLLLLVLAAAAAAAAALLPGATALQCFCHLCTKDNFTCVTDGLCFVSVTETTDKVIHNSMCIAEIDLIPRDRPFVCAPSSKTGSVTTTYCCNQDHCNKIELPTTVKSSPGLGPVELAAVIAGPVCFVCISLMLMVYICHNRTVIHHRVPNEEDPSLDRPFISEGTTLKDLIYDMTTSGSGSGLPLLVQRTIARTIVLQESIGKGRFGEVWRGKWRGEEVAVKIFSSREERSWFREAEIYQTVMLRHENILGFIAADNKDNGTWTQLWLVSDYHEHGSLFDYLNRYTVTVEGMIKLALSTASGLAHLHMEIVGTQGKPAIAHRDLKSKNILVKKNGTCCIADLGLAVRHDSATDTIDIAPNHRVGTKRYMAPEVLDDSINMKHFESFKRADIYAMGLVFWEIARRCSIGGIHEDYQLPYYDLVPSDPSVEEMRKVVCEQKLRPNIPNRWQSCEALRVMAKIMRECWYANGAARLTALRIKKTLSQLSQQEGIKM
As to the kind of experiment: Selectivity interaction (KinomeScan (DiscoverX)) EUB0000666a TGFBR1. The conditions noted are these: at 10 µM.

Test [4] has as its target Phosphatidylinositol 4,5-bisphosphate 3-kinase catalytic subunit gamma isoform (Homo sapiens) (UniProt P48736). Description: Selectivity interaction (KinomeScan (DiscoverX)) EUB0000666a PIK3CG. The conditions noted are these: at 10 µM.
For test [5], the target named is Cyclin-dependent kinase 9 (Homo sapiens, UniProt P50750). Description: Selectivity interaction (KinomeScan (DiscoverX)) EUB0000607a CDK9. As to conditions: at 10 µM.
Sequence of Cyclin-dependent kinase 9 (P50750 whole entry): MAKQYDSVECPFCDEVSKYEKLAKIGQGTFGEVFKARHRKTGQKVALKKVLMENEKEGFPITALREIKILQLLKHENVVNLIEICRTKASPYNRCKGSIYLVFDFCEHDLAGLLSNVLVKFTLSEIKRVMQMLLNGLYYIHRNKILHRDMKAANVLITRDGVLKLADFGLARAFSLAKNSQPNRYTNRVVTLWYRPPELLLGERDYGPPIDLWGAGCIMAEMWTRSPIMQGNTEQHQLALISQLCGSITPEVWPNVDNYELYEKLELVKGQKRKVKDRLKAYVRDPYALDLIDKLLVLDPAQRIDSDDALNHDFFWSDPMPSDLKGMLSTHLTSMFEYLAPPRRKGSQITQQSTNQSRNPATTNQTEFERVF
Test [6] has as its target Vascular endothelial growth factor receptor 3 (Homo sapiens, UniProt P35916). Description: Selectivity interaction (Kinase screening (Nanosyn)) EUB0000604a FLT4.
Test [7] addresses T2, Ephrin type-B receptor 3 (Homo sapiens) (UniProt P54753).
T2 sequence (whole entry): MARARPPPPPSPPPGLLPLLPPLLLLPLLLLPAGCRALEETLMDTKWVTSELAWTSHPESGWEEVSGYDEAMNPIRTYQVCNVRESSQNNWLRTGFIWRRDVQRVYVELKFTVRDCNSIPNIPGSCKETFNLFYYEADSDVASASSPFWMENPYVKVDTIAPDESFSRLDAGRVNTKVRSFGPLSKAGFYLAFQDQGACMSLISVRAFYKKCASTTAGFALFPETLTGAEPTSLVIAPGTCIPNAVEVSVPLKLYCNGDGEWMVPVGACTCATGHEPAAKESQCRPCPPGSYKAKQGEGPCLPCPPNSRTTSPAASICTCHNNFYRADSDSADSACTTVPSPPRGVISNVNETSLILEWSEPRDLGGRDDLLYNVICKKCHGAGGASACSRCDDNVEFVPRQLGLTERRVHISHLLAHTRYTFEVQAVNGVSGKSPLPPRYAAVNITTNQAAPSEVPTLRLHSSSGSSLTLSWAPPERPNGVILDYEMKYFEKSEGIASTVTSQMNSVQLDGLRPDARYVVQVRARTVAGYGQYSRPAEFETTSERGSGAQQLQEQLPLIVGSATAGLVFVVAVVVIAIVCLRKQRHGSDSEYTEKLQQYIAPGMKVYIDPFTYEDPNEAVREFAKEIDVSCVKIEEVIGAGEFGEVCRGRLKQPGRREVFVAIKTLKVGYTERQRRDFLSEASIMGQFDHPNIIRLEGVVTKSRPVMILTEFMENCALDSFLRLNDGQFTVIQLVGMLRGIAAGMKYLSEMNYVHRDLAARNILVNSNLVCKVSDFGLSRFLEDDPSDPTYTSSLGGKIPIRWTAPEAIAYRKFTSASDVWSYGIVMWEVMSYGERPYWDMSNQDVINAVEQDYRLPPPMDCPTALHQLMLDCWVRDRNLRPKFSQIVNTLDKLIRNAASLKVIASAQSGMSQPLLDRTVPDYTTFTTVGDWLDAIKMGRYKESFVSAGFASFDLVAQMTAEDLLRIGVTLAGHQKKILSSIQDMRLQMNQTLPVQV
As to the kind of experiment: Selectivity interaction (Kinase panel (Invitrogen)) EUB0000639a EPHB3. The conditions noted are these: at 200 nM.

The target of test [8] is Bromodomain-containing protein 4 (Homo sapiens, UniProt O60885). Description: Selectivity interaction (Kinase panel (DSF assay)) EUB0001559a BRD4.
The target of test [9] is Protein kinase C theta type (Homo sapiens, UniProt Q04759). Description: Selectivity interaction (Ambit KINOMEscan and KiNATiv profiling in Jurkat cells) EUB0000090b PRKCQ. Type of test: cell-based. As to conditions: at 1 µM.
Sequence of Protein kinase C theta type (Q04759 whole entry, looked up): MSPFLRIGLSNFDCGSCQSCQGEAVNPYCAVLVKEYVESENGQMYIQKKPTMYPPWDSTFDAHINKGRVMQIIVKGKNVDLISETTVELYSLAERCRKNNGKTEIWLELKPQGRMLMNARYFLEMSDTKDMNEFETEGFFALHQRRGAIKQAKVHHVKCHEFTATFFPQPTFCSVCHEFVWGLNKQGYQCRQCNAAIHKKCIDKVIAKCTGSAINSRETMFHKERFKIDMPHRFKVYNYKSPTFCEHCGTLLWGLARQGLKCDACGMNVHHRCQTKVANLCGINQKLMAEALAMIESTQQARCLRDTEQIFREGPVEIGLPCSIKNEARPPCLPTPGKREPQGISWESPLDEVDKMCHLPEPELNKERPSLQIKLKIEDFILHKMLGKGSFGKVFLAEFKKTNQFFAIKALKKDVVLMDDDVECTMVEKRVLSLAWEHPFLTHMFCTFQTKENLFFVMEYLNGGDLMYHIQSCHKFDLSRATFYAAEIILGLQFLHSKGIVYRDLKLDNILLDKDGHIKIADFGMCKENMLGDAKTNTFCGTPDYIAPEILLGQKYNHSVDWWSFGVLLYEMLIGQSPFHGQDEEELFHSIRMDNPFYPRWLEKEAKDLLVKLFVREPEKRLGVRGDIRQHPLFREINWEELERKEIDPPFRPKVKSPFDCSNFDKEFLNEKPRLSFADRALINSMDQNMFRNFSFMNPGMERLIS
The target of test [10] is Serine/threonine-protein kinase pim-2 (Homo sapiens, UniProt Q9P1W9). As to the kind of experiment: Selectivity interaction (Enzymatic assay (Eurofins)) EUB0001049a PIM2.
Sequence of Serine/threonine-protein kinase pim-2 (Q9P1W9 whole entry): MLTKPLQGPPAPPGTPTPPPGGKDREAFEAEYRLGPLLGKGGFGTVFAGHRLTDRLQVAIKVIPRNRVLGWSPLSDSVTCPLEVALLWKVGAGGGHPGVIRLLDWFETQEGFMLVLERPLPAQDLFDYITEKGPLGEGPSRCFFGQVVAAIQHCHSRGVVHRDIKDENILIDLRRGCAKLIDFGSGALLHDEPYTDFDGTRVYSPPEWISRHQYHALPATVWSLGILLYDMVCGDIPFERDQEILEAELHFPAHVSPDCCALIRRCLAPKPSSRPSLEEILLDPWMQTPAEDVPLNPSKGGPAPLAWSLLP
Test [11] deals with MAP/microtubule affinity-regulating kinase 3 (Homo sapiens) (UniProt P27448). As to the kind of experiment: Selectivity interaction (KinomeScan (DiscoverX)) EUB0000655a MARK3. As to conditions: at 10 µM.
Sequence of MAP/microtubule affinity-regulating kinase 3 (Homo sapiens) (P27448 whole entry, looked up): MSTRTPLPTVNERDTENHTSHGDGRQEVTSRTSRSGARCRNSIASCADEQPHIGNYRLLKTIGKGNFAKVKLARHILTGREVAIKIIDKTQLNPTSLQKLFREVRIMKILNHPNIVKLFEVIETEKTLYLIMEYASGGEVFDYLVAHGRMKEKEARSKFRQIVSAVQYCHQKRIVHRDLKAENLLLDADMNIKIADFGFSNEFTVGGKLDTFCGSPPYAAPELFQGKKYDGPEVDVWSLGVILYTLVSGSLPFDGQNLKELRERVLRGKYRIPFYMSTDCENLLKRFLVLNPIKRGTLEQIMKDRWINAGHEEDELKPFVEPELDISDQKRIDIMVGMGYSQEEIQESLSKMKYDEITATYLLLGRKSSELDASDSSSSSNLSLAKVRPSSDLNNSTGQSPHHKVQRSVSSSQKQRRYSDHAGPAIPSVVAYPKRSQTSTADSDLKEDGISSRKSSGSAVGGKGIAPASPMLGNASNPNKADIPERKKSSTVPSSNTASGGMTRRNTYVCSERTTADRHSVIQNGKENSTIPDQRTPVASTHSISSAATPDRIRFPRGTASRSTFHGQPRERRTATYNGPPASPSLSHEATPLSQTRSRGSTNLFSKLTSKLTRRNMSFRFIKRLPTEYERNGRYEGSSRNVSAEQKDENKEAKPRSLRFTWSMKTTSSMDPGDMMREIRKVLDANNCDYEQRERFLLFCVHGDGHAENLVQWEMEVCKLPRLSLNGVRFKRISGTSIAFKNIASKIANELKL
In test [12] the target is RAC-gamma serine/threonine-protein kinase (Homo sapiens, UniProt Q9Y243). Description: Selectivity interaction (KinomeScan (DiscoverX)) EUB0000092b AKT3. The conditions noted are these: at 10 µM.
Sequence of RAC-gamma serine/threonine-protein kinase (Q9Y243 whole entry): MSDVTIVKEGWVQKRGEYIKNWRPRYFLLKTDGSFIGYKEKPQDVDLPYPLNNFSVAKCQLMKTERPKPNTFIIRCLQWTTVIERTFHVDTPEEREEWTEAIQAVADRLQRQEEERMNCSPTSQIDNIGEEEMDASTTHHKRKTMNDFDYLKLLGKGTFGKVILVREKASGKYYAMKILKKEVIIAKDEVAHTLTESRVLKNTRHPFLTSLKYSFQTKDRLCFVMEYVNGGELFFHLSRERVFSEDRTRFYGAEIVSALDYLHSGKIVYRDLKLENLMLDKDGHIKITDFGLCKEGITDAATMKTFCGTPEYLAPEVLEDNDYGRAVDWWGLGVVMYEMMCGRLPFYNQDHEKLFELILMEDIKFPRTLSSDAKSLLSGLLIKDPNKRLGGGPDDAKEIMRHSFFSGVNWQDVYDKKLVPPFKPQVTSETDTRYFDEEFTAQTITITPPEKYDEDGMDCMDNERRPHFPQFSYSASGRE
Test [13] has as its target Kappa-type opioid receptor (Homo sapiens, UniProt P41145). As to the kind of experiment: Selectivity interaction (Panel of non-epigenetic targets (kinases, GPCRs, ion channels, and transporters, Eurofins) ) EUB0000271b OPRK1. As to conditions: at 1 µM.
For test [14], the target named is T3, Alpha-1B adrenergic receptor (Homo sapiens) (UniProt P35368).
T3 sequence (whole entry): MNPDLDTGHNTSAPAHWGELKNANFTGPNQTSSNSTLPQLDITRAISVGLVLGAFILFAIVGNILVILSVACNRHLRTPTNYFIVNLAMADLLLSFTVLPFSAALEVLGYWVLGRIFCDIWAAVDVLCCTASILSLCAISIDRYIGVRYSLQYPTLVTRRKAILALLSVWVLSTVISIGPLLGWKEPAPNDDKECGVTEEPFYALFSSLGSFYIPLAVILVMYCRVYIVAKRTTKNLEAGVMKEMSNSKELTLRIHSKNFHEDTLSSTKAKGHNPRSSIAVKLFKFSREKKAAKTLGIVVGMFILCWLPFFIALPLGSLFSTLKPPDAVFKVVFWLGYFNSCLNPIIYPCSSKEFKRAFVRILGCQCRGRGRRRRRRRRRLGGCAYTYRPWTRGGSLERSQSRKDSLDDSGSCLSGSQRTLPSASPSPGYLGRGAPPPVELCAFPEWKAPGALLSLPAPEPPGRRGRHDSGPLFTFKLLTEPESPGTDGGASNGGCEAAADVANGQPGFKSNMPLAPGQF
Description: Selectivity interaction (GPCR panel (PDSP screen)) EUB0001079a ADRA1B. The conditions noted are these: at 10 µM.

The values that follow come from ChEMBL document CHEMBL5465560, “Selectivity Literature for EUbOPEN Chemogenomic Library” (2024).

What is called IC50 is the concentration that gives 50% inhibition. Read a high IC50 as lower potency.

Sequence of Phosphatidylinositol 4,5-bisphosphate 3-kinase catalytic subunit gamma isoform (Homo sapiens) (P48736 whole entry, looked up, canonical isoform): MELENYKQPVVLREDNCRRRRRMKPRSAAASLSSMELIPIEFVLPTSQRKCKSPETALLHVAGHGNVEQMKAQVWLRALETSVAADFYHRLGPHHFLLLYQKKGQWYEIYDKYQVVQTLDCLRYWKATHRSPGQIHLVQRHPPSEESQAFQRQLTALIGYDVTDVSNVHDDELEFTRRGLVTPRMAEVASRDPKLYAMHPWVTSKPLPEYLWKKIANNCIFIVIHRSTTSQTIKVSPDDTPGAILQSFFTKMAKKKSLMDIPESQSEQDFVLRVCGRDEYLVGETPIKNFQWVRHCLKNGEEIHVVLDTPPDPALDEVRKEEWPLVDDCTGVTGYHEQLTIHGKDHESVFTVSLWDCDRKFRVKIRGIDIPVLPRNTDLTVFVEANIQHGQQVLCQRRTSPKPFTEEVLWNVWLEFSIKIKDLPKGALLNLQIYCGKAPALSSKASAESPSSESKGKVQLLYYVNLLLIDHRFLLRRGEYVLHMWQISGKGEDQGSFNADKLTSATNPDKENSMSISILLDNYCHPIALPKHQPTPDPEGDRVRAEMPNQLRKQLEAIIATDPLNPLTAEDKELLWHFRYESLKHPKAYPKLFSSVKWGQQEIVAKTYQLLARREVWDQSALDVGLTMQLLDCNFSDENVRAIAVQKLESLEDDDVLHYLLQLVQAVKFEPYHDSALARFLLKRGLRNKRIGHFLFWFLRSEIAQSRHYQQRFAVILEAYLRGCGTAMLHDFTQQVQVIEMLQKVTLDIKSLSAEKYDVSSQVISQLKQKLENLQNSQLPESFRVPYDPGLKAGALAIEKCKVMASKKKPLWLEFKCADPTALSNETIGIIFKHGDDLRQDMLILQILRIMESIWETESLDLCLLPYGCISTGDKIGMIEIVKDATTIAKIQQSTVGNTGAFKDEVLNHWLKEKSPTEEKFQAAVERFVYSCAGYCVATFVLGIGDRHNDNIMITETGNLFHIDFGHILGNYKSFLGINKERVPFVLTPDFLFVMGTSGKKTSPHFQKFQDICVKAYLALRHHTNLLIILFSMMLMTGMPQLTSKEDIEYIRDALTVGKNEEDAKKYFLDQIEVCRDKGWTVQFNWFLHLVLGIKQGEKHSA
Sequence of Kappa-type opioid receptor (P41145 whole entry): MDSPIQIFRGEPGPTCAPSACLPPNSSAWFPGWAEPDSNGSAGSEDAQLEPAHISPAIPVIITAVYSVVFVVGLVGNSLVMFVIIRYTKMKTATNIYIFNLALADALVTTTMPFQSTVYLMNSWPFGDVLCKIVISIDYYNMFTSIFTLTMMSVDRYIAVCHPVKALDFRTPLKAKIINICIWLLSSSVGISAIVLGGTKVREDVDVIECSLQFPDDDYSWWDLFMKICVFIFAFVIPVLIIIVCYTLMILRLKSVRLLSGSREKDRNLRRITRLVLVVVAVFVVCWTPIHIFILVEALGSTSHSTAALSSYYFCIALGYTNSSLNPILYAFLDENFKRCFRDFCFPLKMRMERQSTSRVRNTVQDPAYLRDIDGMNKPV
Sequence of Calcium/calmodulin-dependent protein kinase type 1 (Homo sapiens) (Q14012 whole entry, looked up): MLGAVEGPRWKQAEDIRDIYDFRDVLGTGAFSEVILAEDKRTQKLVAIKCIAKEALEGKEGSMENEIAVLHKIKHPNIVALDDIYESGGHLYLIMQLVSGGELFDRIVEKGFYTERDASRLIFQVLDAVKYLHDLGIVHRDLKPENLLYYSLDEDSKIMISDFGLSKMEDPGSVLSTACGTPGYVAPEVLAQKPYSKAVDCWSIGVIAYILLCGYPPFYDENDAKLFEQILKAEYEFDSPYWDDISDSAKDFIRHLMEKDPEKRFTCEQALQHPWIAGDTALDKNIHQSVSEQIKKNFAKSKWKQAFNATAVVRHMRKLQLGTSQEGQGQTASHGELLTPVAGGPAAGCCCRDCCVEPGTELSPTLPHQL

`N#Cc1cccc(-c2c[nH]c3ncnc(N4CCOCC4)c23)c1`: in [1], the % of inhibition was -4%.
As to `O=C(NOC[C@H](O)CO)c1ccc(F)c(F)c1Nc1ccc(I)cc1F`, the figures for the % of control in test [2], in [3] and in [4] were 98%, 100% and 88%, respectively.
With `CNC(=O)Nc1ccc(-c2nc(N3CC4CCC(C3)O4)c3cnn(C4CCC5(CC4)OCCO5)c3n2)cc1`, in test [5], the % of control came to 100%.
As for `Cc1cnc(Nc2ccc(F)cc2Cl)nc1-c1c[nH]c(C(=O)N[C@H](CO)c2cccc(Cl)c2)c1`, in [6], the % of inhibition stood at 8%.
Consider `CC[C@@H]1[C@H](F)C(=O)N[C@@H]1COc1nccc2cc(C(N)=O)c(OC)cc12` [ZIMLOVISERTIB], for which the % of inhibition in test [7] was 4.83%.
`CN(C(=O)c1cnn2cccnc12)c1cc2c(cc1N1CCOCC1)C(=O)N(C[C@@H](F)C(C)(C)O)C2`: the dTM in test [8] is -0.8 K.
`CN(C)C/C=C/C(=O)Nc1ccc(C(=O)N2CCCC(Nc3ncc(Cl)c(-c4c[nH]c5ccccc45)n3)C2)cc1` (centres undefined): in test [9], the % of control turned out to be 100%.
In test [10], `COc1cc(Nc2nc(C)cc(-c3cnn4nc(OC)ccc34)n2)cc(C(F)(F)F)c1` showed an IC50 of over 10 µM.
In turn, `CN(C)CCOc1ccc(-c2nc(-c3ccncc3)c(-c3ccc4c(c3)CC/C4=N\O)[nH]2)cc1` gave a % of control in [11] of 95%.
`CCC(=O)N1CCN(c2ccc(-n3c(=O)ccc4cnc5ccc(-c6cnc7ccccc7c6)cc5c43)cc2C(F)(F)F)CC1` showed a % of control in test [12] of 77%.
Turning to `Cc1cc(C)cc([C@@H]2c3cc(C)ccc3NC(=O)CN2C(=O)c2ccc(Br)s2)c1`, in [13], the % of inhibition worked out at 20%.
On to `Nc1cnc(N2CCc3cc(S(=O)(=O)Nc4c(F)cc(Cl)cc4F)cc(N4CCCC4=O)c32)nc1` [TP-020n], for which the % of inhibition in test [14] was 4.68%.
